Results as given in patent US6596749B2, “Aminotriazole compounds” (Les Laboratoires Servier, priority 1999, dated 2003).

Key:
obese ob/ob mouse = assay: Effect on food intake and weight development in the obese mouse; format: in vivo; conditions: female ob/ob C57B1/6J mice; for Food intake % variation (D1), Treated: D1, compared with the basal food intake; for Body weight % variation (D4/D0): between first and last day of treatment
Procedure: The compounds of the invention were administered in vivo to the obese ob/ob mouse in order to evaluate their influence on food intake and weight development. The animals used are 13- to 18-week-old female ob/ob C57B1/6J mice. They are divided into groups each comprising 4 animals per cage, the cages being fitted with a grating floor, and the mice having free access to food.
Before the experiments, the animals are conditioned for a period ranging from 2 to 3 weeks until their food consumption has stabilised. The experiments may be summarised as follows:
The test compounds are dissolved, immediately before use, in water, 0.9% sodium chloride, propylene glycol or dimethyl sulphoxide, depending upon their solubility, and are administered intraperitoneally (IP), in a volume of 2.5 ml/kg.
The parameters measured are the food intake and the body weight.
The results are expressed as: […]
percentage variation in food intake under treatment compared with the basal food intake;
percentage variation in body weight between the first and last day of treatment.

Y5 receptor = target: T1, Y5 receptor (Homo sapiens, UniProt Q15761); assay: In vitro affinity for NPY receptors, [125I]-PYY competition binding, Y5 receptor; conditions: radioligand [125I]-PYY 15 to 65 pM
T1 sequence (Q15761 1-445): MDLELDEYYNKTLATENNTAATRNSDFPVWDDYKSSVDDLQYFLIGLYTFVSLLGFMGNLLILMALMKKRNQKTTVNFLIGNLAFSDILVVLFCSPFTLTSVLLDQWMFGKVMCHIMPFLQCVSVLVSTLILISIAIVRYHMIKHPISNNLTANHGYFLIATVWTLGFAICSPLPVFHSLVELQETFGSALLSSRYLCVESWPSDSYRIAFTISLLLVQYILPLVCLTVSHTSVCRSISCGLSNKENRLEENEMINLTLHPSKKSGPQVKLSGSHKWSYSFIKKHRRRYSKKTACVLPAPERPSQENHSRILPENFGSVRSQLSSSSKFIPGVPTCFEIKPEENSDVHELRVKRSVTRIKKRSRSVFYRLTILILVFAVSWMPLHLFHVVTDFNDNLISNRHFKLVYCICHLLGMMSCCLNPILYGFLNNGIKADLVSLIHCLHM
Procedure: The capacity of the compounds of the invention to bind to NPY receptors was measured on various cell lines, each expressing one of the receptor sub-types studied. Competition binding experiments were carried out using the peptide [^125I]-PYY as radioligand at concentrations ranging from 15 to 65 pM. The non-specific fraction is measured in the presence of a concentration of 1 μM NPY. The cells are incubated for a period ranging from 1 to 2 hours depending upon the lines, and the radioactivity is collected after filtration over a GF/C filter treated with 0.1% PEI, before being measured.

SMILES | Food intake % variation (D1), Treated (obese ob/ob mouse; 1 mg/kg IP twice daily) | Body weight % variation (D4/D0) (obese ob/ob mouse; 1 mg/kg IP twice daily) | IC50 (Y5 receptor) | Food intake % variation (D1), Treated (obese ob/ob mouse; 5 mg/kg IP twice daily) | Body weight % variation (D4/D0) (obese ob/ob mouse; 5 mg/kg IP twice daily)
O=C(NNS(=O)(=O)c1ccccc1)c1ccc(Nc2nc(-c3ccccc3)n(-c3cccc(C(F)(F)F)c3)n2)cc1 [Example 1, N′-[4-({5-Phenyl-1-[3-(trifluoromethyl)phenyl]-1H-1,2,4-triazol-3-yl}-amino)benzoyl]benzenesulphonohydrazide] | −45% | −6.4% | 80 nM |  | 
COc1ccc(S(=O)(=O)NNC(=O)c2ccc(Nc3nc(-c4ccccc4)n(-c4cccc(C(F)(F)F)c4)n3)cc2)cc1 [Example 6] |  |  | 7 nM | −34% | −11.2%
